Reference: PubChem BioAssay (NCI)
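In this assay, cells in 96-well plates receive the compound at five concentrations for 48 hours. Endpoints are linearly interpolated between the surrounding concentrations. TGI is the concentration that stops growth completely.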

Tests used:
Assay in all cases: DTP human tumour cell line panel, 48 h
[1] = system: UACC-257 melanoma
[2] = system: SF-268 CNS
[3] = system: LOX IMVI melanoma
[4] = system: SK-MEL-2 melanoma
[5] = system: U251 CNS
[6] = system: HCT-15 colon
[7] = system: HCT-116 colon
[8] = system: CAKI-1 renal
[9] = system: SK-MEL-5 melanoma
[10] = system: A549 NSCLC
[11] = system: OVCAR-5 ovarian
[12] = system: ACHN renal
[13] = system: IGROV1 ovarian
[14] = system: SW-620 colon
[15] = system: CCRF-CEM leukemia
[16] = system: SF-539 CNS
[17] = system: NCI-H226 lung
[18] = system: NCI-H460 lung
[19] = system: MDA-MB-435
[20] = system: DU-145 prostate
[21] = system: K-562 leukemia
[22] = system: OVCAR-4 ovarian
[23] = system: T-47D breast
[24] = system: TK-10 renal
[25] = system: PC-3 prostate
[26] = system: SN12C renal
[27] = system: HCC-2998 colon
[28] = system: NCI-H522 lung
[29] = system: SF-295 CNS
[30] = system: UACC-62 melanoma
[31] = system: RXF 393 renal
[32] = system: SNB-19 CNS
[33] = system: NCI-H23 lung
[34] = system: COLO 205 colon
[35] = system: MCF7 breast
[36] = system: SNB-75 CNS
[37] = system: OVCAR-8 ovarian
[38] = system: UO-31 renal
[39] = system: HS 578T breast
[40] = system: HT29 colon
[41] = system: BT-549 breast
[42] = system: KM12 colon
[43] = system: M14 melanoma
[44] = system: A498 renal
[45] = system: MOLT-4 leukemia
[46] = system: MALME-3M melanoma
[47] = system: HOP-62 NSCLC
[48] = system: SK-OV-3 ovarian
[49] = system: HOP-92 NSCLC
[50] = system: MDA-N
[51] = system: MDA-MB-231 breast
[52] = system: 786-0 renal
[53] = system: RPMI-8226 leukemia
[54] = system: EKVX NSCLC
[55] = system: NCI/ADR-RES ovarian
[56] = system: OVCAR-3 ovarian
[57] = system: SK-MEL-28 melanoma
[58] = system: HL-60(TB) leukemia

O=c1[nH]c(=O)n(C2OC(CO)C(O)C2O)c2nc(-c3ccc(-c4ccccc4)cc3)cnc12 (stereo unspecified)
TGI [1]: > 100 µM
TGI [2]: > 100 µM
TGI [3]: > 100 µM
TGI [4]: > 100 µM
TGI [5]: > 100 µM
TGI [6]: > 100 µM
TGI [7]: > 100 µM
TGI [8]: > 100 µM
TGI [9]: > 100 µM
TGI [10]: > 100 µM
TGI [11]: > 100 µM
TGI [12]: > 100 µM
TGI [13]: > 100 µM
TGI [14]: > 100 µM
TGI [15]: > 100 µM
TGI [16]: > 100 µM
TGI [17]: > 100 µM
TGI [18]: > 100 µM
TGI [19]: > 100 µM
TGI [20]: > 100 µM
TGI [21]: > 100 µM
TGI [22]: > 100 µM
TGI [23]: > 100 µM
TGI [24]: > 100 µM
TGI [25]: > 100 µM
TGI [26]: > 100 µM
TGI [27]: > 100 µM
TGI [28]: > 100 µM
TGI [29]: > 100 µM
TGI [30]: > 100 µM
TGI [31]: > 100 µM
TGI [32]: > 100 µM
TGI [33]: > 100 µM
TGI [34]: > 100 µM
TGI [35]: > 100 µM
TGI [36]: > 100 µM
TGI [37]: > 100 µM
TGI [38]: > 100 µM
TGI [39]: > 100 µM
TGI [40]: > 100 µM
TGI [41]: > 100 µM
TGI [42]: > 100 µM
TGI [43]: > 100 µM
TGI [44]: > 100 µM
TGI [45]: > 100 µM
TGI [46]: > 100 µM
TGI [47]: > 100 µM
TGI [48]: > 100 µM
TGI [49]: > 100 µM
TGI [50]: > 100 µM
TGI [51]: > 100 µM
TGI [52]: > 100 µM
TGI [53]: > 100 µM
TGI [54]: > 100 µM
TGI [55]: > 100 µM

COc1cc(C2c3cc4c(cc3OC(NN)C2C)OCO4)cc(OC)c1OC (stereo unspecified)
TGI [1]: > 100 µM
TGI [2]: > 100 µM
TGI [3]: > 100 µM
TGI [4]: > 100 µM
TGI [5]: 16.2 µM
TGI [6]: > 37.4 µM
TGI [7]: > 28.2 µM
TGI [8]: > 90.6 µM
TGI [9]: > 26.8 µM
TGI [10]: > 100 µM
TGI [11]: > 100 µM
TGI [12]: > 100 µM
TGI [13]: > 100 µM
TGI [14]: > 100 µM
TGI [56]: 1.04 µM
TGI [15]: > 93 µM
TGI [16]: 0.6 µM
TGI [17]: > 24.4 µM
TGI [18]: > 100 µM
TGI [20]: > 100 µM
TGI [21]: > 31.1 µM
TGI [22]: > 100 µM
TGI [23]: > 100 µM
TGI [24]: > 100 µM
TGI [25]: > 100 µM
TGI [57]: > 100 µM
TGI [26]: > 100 µM
TGI [27]: 3.55 µM
TGI [28]: 8.96 µM
TGI [29]: > 22.7 µM
TGI [30]: > 100 µM
TGI [31]: > 100 µM
TGI [58]: 0.977 µM
TGI [32]: > 100 µM
TGI [33]: > 100 µM
TGI [34]: 13.9 µM
TGI [35]: > 40 µM
TGI [36]: > 75.2 µM
TGI [37]: > 100 µM
TGI [38]: > 100 µM
TGI [39]: > 100 µM
TGI [41]: > 100 µM
TGI [42]: > 100 µM
TGI [43]: > 100 µM
TGI [44]: 0.709 µM
TGI [45]: > 100 µM
TGI [46]: > 100 µM
TGI [47]: 8.55 µM
TGI [48]: > 100 µM
TGI [49]: 84.8 µM
TGI [50]: > 100 µM
TGI [51]: > 91.1 µM
TGI [52]: > 100 µM
TGI [53]: 67.7 µM
TGI [54]: > 100 µM
TGI [55]: > 100 µM
